The source made the active and inactive calls. No cut-off for these calls is given here.
Tests used:
A549 = assay: Antiproliferative activity against human A549 cells assessed as reduction in cell viability at 10 uM incubated for 24 to 48 hrs by CCK-8 assay; format: functional, cell-based; details: time lower […], time upper 48.0 hrs
786-0 = assay: Antiproliferative activity against human 786-0 cells assessed as reduction in cell viability at 10 uM incubated for 24 to 48 hrs by CCK-8 assay; format: functional, cell-based; details: time lower […], time upper 48.0 hrs
HCT-116 [1] = assay: Antiproliferative activity against human HCT-116 cells assessed as reduction in cell viability incubated for 48 hrs by CCK-8 assay; format: functional, cell-based; details: dose 20-80 µM
HCT-116 [2] = assay: Induction of cell cycle arrest in human HCT-116 cells assessed as increase in accumulation of cells at G1/G0 phase at 3 to 12 uM incubated for 48 hrs by PI staining based flow cytometry analysis (reference value: 36.6 %); format: functional; details: dose 3-12 µM
HCT-116 [3] = assay: Induction of cell cycle arrest at G1/G0 phase in human HCT-116 cells assessed as decrease in cyclinD1 expression incubated for 48 hrs by Western blotting analysis; format: functional, cell-based; details: dose 3-12 µM

## Nc1nc2cc(-c3ccc4ncc(N5C[C@@H]6OCCO[C@@H]6C5)nc4c3)ccc2o1
A549
  Activity: Active
786-0
  Activity: Active
HCT-116 [1]
  Activity: Dose-Dependent Effect
HCT-116 [2]
  Activity: 43.2%
HCT-116 [3]
  Activity: Dose-Dependent Effect

Source: ChEMBL document CHEMBL5634096, “Design, synthesis and bioevaluation of PI3Kα-selective inhibitors as potential colorectal cancer drugs” (Eur J Med Chem, 2023)
